Experimental data reported in patent US12565488B2, “Inhibitors of influenza virus replication” (COCRYSTAL PHARMA, INC., priority 2018, dated 2026).

These compounds were tested on Influenza type A (strain A/PR/8/34, ATCC VR-95) (assay: Influenza antiviral assay: inhibition of virus-induced cytopathic effects (CPE) in MDCK cells, XTT dye reduction). Settings: Influenza A (H1N1) replication in MDCK cells, CPE reduction by XTT at 4 days post-infection; read-out: Influenza H1N1 affinity, EC50.
Format: cell-based

| Compound | EC50 [µM] |
| --- | --- |
| O=C(NCC1c2ccccc2COc2ccccc21)c1c(O)c(=O)ccn1CC1c2ccccc2COc2ccccc21 (stereo not shown) [Compound 102] | > 100 |
| O=C(NCC1c2ccccc2COc2ccccc21)c1c(O)c(=O)ccn1CC1c2ccccc2COc2ccccc21 (stereo not shown) [Compound 106] | > 100 |
| O=C(NCC1c2ccccc2COc2ccccc21)c1c(O)c(=O)ccn1CC1c2ccccc2COc2ccccc21 (stereo not shown) [Compound 107] | > 100 |
| O=C(NCC1c2ccccc2COc2ccccc21)c1c(O)c(=O)ccn1CC1c2ccccc2COc2ccccc21 (stereo not shown) [Compound 108] | 1 to 10 |

Same assay, conditions: Influenza A virus, H1N1 / PR/8, MDCK, 96 h, Influenza A (H1N1) replication in MDCK cells, CPE reduction by XTT at 4 days post-infection; read-out: Influenza H1N1 affinity, EC50

| Compound | EC50 [µM] |
| --- | --- |
| O=C(O)c1c(O)c(=O)ccn1NC1c2ccc(F)c(F)c2COc2c1ccc(F)c2F (stereo not shown) [Compound 80] | 1 to 10 |
| O=C(O)c1c(O)c(=O)ccn1NC(c1ccccc1)c1ccc2ccccc2c1 (stereo not shown) [Compound 82] | 10 to 100 |
| O=C(O)c1c(O)c(=O)ccn1NC1c2ccc(C(F)(F)F)cc2COc2ccccc21 (stereo not shown) [Compound 86] | > 100 |
| O=C(O)c1c(O)c(=O)ccn1NC1c2ccccc2CSc2c1ccc(Cl)c2Cl (stereo not shown) [Compound 87] | 1 to 10 |
| O=C(O)c1c(O)c(=O)ccn1NC1c2ccccc2CSc2cc(F)c(F)cc21 (stereo not shown) [Compound 88] | 10 to 100 |
| O=C(O)c1c(O)c(=O)ccn1NC1c2ccc(F)c(F)c2CSc2c1ccc(F)c2F (stereo not shown) [Compound 93] | 1 to 10 |
| O=C(O)c1c(O)c(=O)ccn1NC1c2ccccc2SCc2c1ccc(Cl)c2Cl (stereo not shown) [Compound 94] | 0.1 to 1 |
| O=C(O)c1c(O)c(=O)ccn1NC1c2cc(F)c(F)cc2CSc2ccccc21 (stereo not shown) [Compound 95] | 1 to 10 |
| O=C(O)c1c(O)c(=O)ccn1NC1c2ccccc2SCc2c1ccc(F)c2Br (stereo not shown) [Compound 96] | 0.1 to 1 |
| O=C(O)c1c(O)c(=O)ccn1NC1c2ccccc2SCc2c1ccc(Br)c2Cl (stereo not shown) [Compound 97] | 1 to 10 |
| O=C(O)c1c(O)c(=O)ccn1NC1c2ccccc2OCc2c1ccc(Cl)c2Cl (stereo not shown) [Compound 99] | 1 to 10 |
| O=C(O)c1c(O)c(=O)ccn1NC(c1ccc2ccccc2c1)c1ccc2ccccc2c1 [Compound 100] | > 100 |
| CNC(=O)c1cn(NC2c3ccccc3COc3ccccc32)c(C(=O)NC)c(O)c1=O (stereo not shown) [Compound 103] | > 100 |
| CCOC(=O)c1cn(NC2c3ccccc3COc3ccccc32)c(C(=O)OCC)c(O)c1=O (stereo not shown) [Compound 104] | > 100 |
| O=C(O)c1c(O)c(=O)ccn1NC(c1ccc(F)c(F)c1)c1ccc(F)c(F)c1 [Compound 105] | > 100 |
| O=C(O)c1cn(NC2c3ccccc3COc3ccccc32)c(C(=O)O)c(O)c1=O (stereo not shown) [Compound 109] | 10 to 100 |
| O=C(O)c1c(O)c(=O)ccn1NC1c2ccc(C(F)(F)F)cc2COc2cc(C(F)(F)F)ccc21 (stereo not shown) [Compound 110] | > 100 |

| Compound | EC50 [µM] |
| --- | --- |
| O=C(O)c1c(O)c(=O)ccn1NC(c1ccccc1)c1cccc2ccccc12 (stereo not shown) [Compound 112] | 10 to 100 |
| CC(C)c1ccc2c(c1)C(Nn1ccc(=O)c(O)c1C(=O)O)c1ccc(F)c(F)c1CS2 (stereo not shown) [Compound 113] | > 100 |
| O=C(O)c1c(O)c(=O)ccn1NC1c2ccc(-c3ccccc3)cc2SCc2c1ccc(F)c2F (stereo not shown) [Compound 114] | 10 to 100 |
| COc1ccc2c(c1)C(Nn1ccc(=O)c(O)c1C(=O)O)c1ccccc1CS2 (stereo not shown) [Compound 115] | > 100 |
| O=C(O)c1c(O)c(=O)ccn1NC1c2cc(OC(F)(F)F)ccc2SCc2c1ccc(F)c2F (stereo not shown) [Compound 116] | 10 to 100 |
| O=C(O)c1c(O)c(=O)ccn1NC1c2cc(Cl)c(Cl)cc2CSc2ccccc21 (stereo not shown) [Compound 117] | 10 to 100 |
| O=C(O)c1c(O)c(=O)ccn1CC1c2ccccc2SCc2c1ccc(F)c2F (stereo not shown) [Compound 118] | > 100 |
| O=C(O)c1cn(NC2c3ccccc3SCc3c2ccc(F)c3F)cc(O)c1=O (stereo not shown) [Compound 120] | 1 to 10 |
| O=C(O)c1c(O)c(=O)ccn1NC1c2ccc(F)c(F)c2CSc2c(-c3ccccc3)cccc21 (stereo not shown) [Compound 121] | > 100 |
| O=C(O)c1c(O)c(=O)ccn1NC1c2ccc(F)c(F)c2CSc2c(-c3ccc(F)cc3)cccc21 (stereo not shown) [Compound 122] | > 100 |
| O=C(O)c1c(O)c(=O)ccn1NC1c2ccc(-c3ccc(F)cc3)cc2SCc2c1ccc(F)c2F (stereo not shown) [Compound 123] | 10 to 100 |
| O=C(O)c1c(O)c(=O)ccn1NC1c2ccccc2S(=O)(=O)Cc2c1ccc(F)c2F (stereo not shown) [Compound 126] | 10 to 100 |
| NC(=O)c1c(O)c(=O)ccn1NC1c2ccccc2SCc2c1ccc(F)c2F (stereo not shown) [Compound 127] | 1 to 10 |
| O=C(O)c1c(O)c(=O)ccn1NC1c2ccccc2SCc2c1cccc2N1CCCC1=O (stereo not shown) [Compound 128] | 1 to 10 |
| O=C(NO)c1c(O)c(=O)ccn1NC1c2ccccc2SCc2c1ccc(F)c2F (stereo not shown) [Compound 129] | 1 to 10 |
| O=C(NOCc1ccccc1)c1c(O)c(=O)ccn1NC1c2ccccc2SCc2c1ccc(F)c2F (stereo not shown) [Compound 130, N-(benzyloxy)-1-((7,8-difluoro-6,11-dihydrodibenzo[b,e]thiepin-11-yl)amino)-3-hydroxy-4-oxo-1,4-dihydropyridine-2-carboxamide] | 1 to 10 |
